Read-outs that look alike come from different tables or passages of the source.

We go through one compound from patent publication EP4745130A1, “CRYSTAL FORMS OF TUBULIN-SRC DUAL-TARGETING INHIBITOR, PREPARATION METHOD THEREFOR AND USE THEREOF” (Hubei Bio-Pharmaceutical Industrial Technological Institute …, priority 2023, dated 2025).

Series [1] in a line: Thermodynamic solubility test. The class given is physicochemical. Particulars: for solubility: thermodynamic from solid, 4 mg/mL, overnight at room temperature. The protocol: Phosphate buffer saline (PBS) with a pH of 7.4, FeSSIF solution with a pH of 6.5, and FaSSGF solution with a pH of 1.6 were prepared. The compound was accurately weighed and added to prepared phosphate buffer saline with a pH of 7.4, FeSSIF solution with a pH of 6.5, and FaSSGF solution with a pH of 1.6 to prepare into a solution with a concentration of 4 mg/mL. The solution was shaken at a speed of 1000 rpm for 1 hour, and then incubated overnight at room temperature. The incubated solution was centrifuged at 12,000 rpm for 10 minutes to remove undissolved particles, and the supernatant was transferred to a new centrifuge tube. After the supernatant was appropriately diluted, an acetonitrile solution containing internal standard was added, and a standard curve prepared with the same matrix was used for quantification. Table 42: Thermodynamic solubility test results

Series [2] is described as follows: Pharmacokinetic test in mice. The class given is in vivo. How it is done: For the pharmacokinetic test in mice, 3 male ICR mice, 20 to 25 g, were used, fasted overnight, and administered by tail vein injection (1 mg/kg or 5 mg/kg). Blood was collected before the administration, and at 15 min, 30 min, 1 hour, 2 hours, 4 hours, 8 hours, and 24 hours after the administration. Another 3 mice were taken and administered by oral gavage (5 mg/kg), and blood was collected before the administration, and at 15 min, 30 min, 1 hour, 2 hours, 4 hours, 8 hours, and 24 hours after the administration. Blood samples were centrifuged at 6800 g at 2 to 8°C for 6 min, and plasma was collected and stored at -80°C. The plasma at each time point was taken and added with an acetonitrile solution containing internal standard in 3 to 5 times the amount. The mixture was vortexed and mixed for 1 min, and centrifuged at 13,000 rpm at 4°C for 10 min. The supernatant was collected, added with water in 3 times the amount, and mixed. An appropriate amount of the mixture was taken for LC-MS/MS analysis. The main pharmacokinetic parameters were analyzed using WinNonlin 7.0 software with non-compartmental model. Table 43: Results 1 of pharmacokinetic tests in mice

Where [3] appears, read: mouse, plasma, male ICR mice, intravenous injection administration (1 mg/kg).
[4] abbreviates: mouse, plasma, male ICR mice, oral gavage administration (5 mg/kg).

As for `Cc1cc(OCCN2C[C@H]3COC[C@H]3C2)ccc1-c1ccc(CC(=O)NCc2ccccc2)nc1` [Compound of Formula I, N-benzyl-2-(5-(2-methyl-4-(2-((3aR,6aS)-tetrahydro-1H-furo[3,4-c]pyrrol-5(3H)-yl)ethoxy)phenyl)pyridin-2-yl)acetamide], the solubility in series [1] (FeSSIF solution, FeSSIF (pH 6.5), read-out: Solubility (µg/mL) FeSSIF (pH 6.5)) is 650 µg/mL. Also, the thermodynamic solubility result in series [1] (in words, under neutral conditions, compared with the control compound) is “greater thermodynamic solubility”. Moreover, the solubility in series [1] (phosphate buffer saline (PBS), aqueous buffer, PBS (pH 7.4), read-out: Solubility (µg/mL) PBS (pH 7.4)) amounted to 101 µg/mL. Besides, the “metabolism in mice in vivo” value in series [2] (in words, compared with the control compound) is “rapid metabolism”. In series [2] (setting [3]), the AUC(0-t) – broadly, the area under the concentration-time curve up to a stated or last time point – is 430 ng·h/mL and the clearance (as a rule, the volume of plasma or blood freed of the substance per unit of time) was 34.5 mL/min/kg. In series [2] (setting [4]), the AUC(0-t) came out at 443 ng·h/mL and the highest level (Cmax) was 322 ng/mL.
